According to patent EP0374249A1, “METHOD OF STERILIZING PLANT POLLEN” (VSESOJUZNY NAUCHNO-ISSLEDOVATELSKY INST. SELSKOKHOZYAISTV. …, priority 1988, dated 1989):

System: Hirse Sorte K-9693 Kormovoe 1
Assay: Field test of pollen sterilisation, millet K-9693 Kormovoe 1
Assay type: in vivo
Settings: 1% aqueous emulsion, 6 kg/ha; for Prozentsatz der Sterilität / Anzahl von Körnern der Rispe bei freier Bestäubung / Anzahl von Körnern der Rispe im Isolator: period V of organogenesis; for Anzahl von Körnern der Rispe bei freier Bestäubung: free pollination; for Anzahl von Körnern der Rispe im Isolator: isolated panicles; for Prozentsatz des Ansetzens von Körnern bei freier Bestäubung: period V, non-isolated control = 100%
Description: Die gametozide Aktivität der erfindungsgemässen Sterilisationsmittel war im Feldversuch in verschiedenen Bodenklimatischen Zonen mit Teilstücken von 10 m^2 Grösse in drei- bis viermaliger Wiederholung nachgewiesen. Jedes Sterilisationsmittel wurde mindestens 5 Jahre lang geprüft.
Die Entwicklung der Perioden der Organogenese wird zytologischüberwacht. Die Behandlung von Pflanzen mit dem Sterilisationsmittel erfolgt am Anfang der fünften Periode der Organogenese nach Kupermann.
Mit dem Ahrenschiebe verwirklicht man die Isolierung von Hauptähren und anderen Stockwerken in Pergamentbeuteln. Bei Weizen und Tritikale werden Einzelisolatoren verwendet. Bei Roggen schliesst man je Ähre 5 bis 7 verschiedene nebeneinander befindliche Pflanzen unter einen gemeinsamen Isolator ein. Bei Hirse wird jede Rispe getrennt isoliert. Der Sterilitätsprozentsatz (X) für Weizen, Roggen, Tritikale und Hirse wird nach folgender Formel [formula] ermittelt.
Die Kornzahl in nicht isolierten ähren von Kontrollpflanzen wird bedingt für 100% Ansetzen bei freier Bestäubung angenommen.
Um zuverlässige Angaben zu erhalten, verwendet man 20 bis 25 Isolatoren jeder Wiederholung für Weisen und Tritikale, 10 bis 15 Gruppenisolatoren jeder Wiederholung für Roggen und Hirse.
Pflanzen der Hirse Sorte K-9693 Kormovoe 1 werden in der V. Periode der Organogenese (nach Kupermann) mit einer 1%igen wässrigen Emulsion von N-(2-Dimethylaminoäthyl) maleaminsäure, N-(3-Dimethylaminopropyl)maleaminsäure, N-Äthylmaleaminsäure, N-Karbamoylmaleaminsäure behandelt. Die Emulsion enthält 0,01 Masse% Dimethylformamid und 0,1 Masse% Kalziumalkylbenzolsulfonat mit 12 bis 14 Kohlenstoffatomen.
Der Verbrauch an Präparat beträgt 6 kg/ha. Als Kontrolle dienen Pflanzen, behandelt mit einem Verdünner ohne Sterilisationsmittel. Die Prüfergebnisse sind in der Tabelle13 dargestellt. […] Periode der Organogenese erhalten.

| Compound | Prozentsatz der Sterilität | Anzahl von Körnern der Rispe bei freier Bestäubung | Anzahl von Körnern der Rispe im Isolator | Prozentsatz des Ansetzens von Körnern bei freier Bestäubung |
| --- | --- | --- | --- | --- |
| CN(C)CCNC(=O)/C=C\C(=O)O [Beispiel 54, N-(2-Dimethylaminoäthyl) maleaminsäure] | 100,0% | 124,2 | 0,0 | 84,7% |
| CN(C)CCCNC(=O)/C=C\C(=O)O [Beispiel 55, N-(3-Dimethylaminopropyl)maleaminsäure] | 100,0% | 100,8 | 0,0 | 68,7% |
| CCNC(=O)/C=C\C(=O)O [Beispiel 56, N-Äthylmaleaminsäure] | 100,0% | 114,7 | 0,0 | 78,2% |
| O=C(O)/C=C\C(=O)NCCO [Beispiel 57, N-(2-Hydroxyäthyl)maleaminsäure] | 100,0% | 127,2 | 0,0 | 86,7% |
| NC(=O)NC(=O)/C=C\C(=O)O [Beispiel 58, N-Karbamoylmaleaminsäure] | 100,0% | 133,6 | 0,0 | 91,1% |
